Read-outs that look alike come from different tables or passages of the source.
Experiments:
[1] = test system: gramicidin A (gA) channels in DC22:1PC lipid bilayer vesicles; experiment: gramicidin-based stopped-flow fluorescence quench assay (Tl+ influx into ANTS-filled, gA-doped LUVs); format: biochemical, Bacillus brevis; settings: for Flourescence: concentration at which the molecules double/half the rate of the fluorescence quenching: fitted stretched exponential, rate at 2 ms, DC22:1PC LUVs; for rate of quencher influx (rate of stretched exponential): 260 nM gA, mean±SD, n>10, control 36±6
Method: 24 hours before fluorescence measurements, ANTS-filled liposomes were mixed 1:20 in S_Na_Buffer. For the portion of liposomes that are to be doped with gramicidin, the desired amount of gramicidins was added at this time. […] Gramicidin diluted in DMSO was used, but the added DMSO was kept to an absolute minimum (<0.1% of volume) as DMSO of >0.5% affects bilayer properties. The solution was stored at 12-13° C. in the dark.
The modifier in question was diluted in DMSO. The same amount of DMSO was added to all samples, including control.
For each condition: • 1. Use 1.5 mL of diluted ANTS-liposomes for each condition (compound, concentration). • 2. Add compound at the desired concentration and incubate for 10 min at 25° C. (keep in dark), or DMSO for controls. • 3. Record fluorescence, x8 repeats, with S_Na_Buffer (the first four should be removed due to mixing). • 4. Record fluorescence, x12 repeats, with S_Tl_Quencher (the first four should also be removed due to mixing).
Generate fluorescent liposomes. […] 1,2-Dierucoyl-sn-Glycero-3-Phosphocholine lipids, from Avanti Polar Lipids (Alabaster, Ala.), were bought in a lipid/chloroform solution and used without further purification. For each batch of vesicles, the lipid/chloroform solution was dried under nitrogen and then further dried in a dessicator under vacuum overnight to fully remove the chloroform. The dried lipid film was rehydrated in 100 mM NaNO3, 25 mM ANTS, 10 mM HEPES at pH 7.0 at room temperature over night, volume was adjusted to give a 10 mM lipid concentration. The suspension was then sonicated in a low power sonicator for 1 min, subjected to 5-6 freeze thaw cycles and extruded 21 times, at room temperature, using Avanti mini-extruder, Avanti Polar Lipids (Alabaster, Ala.), and a 0.1 μm Polycarbonate Membrane filter. External ANTS was removed by filtering though a PD-10 Desalting column, GE Healthcare (Piscataway, N.J.). Prepared ANTS-LUV stock was stored at 12-13° C. in the dark for a maximum of seven days. Before the fluorescence experiments ANTS-LUV stock was diluted 1:20 with 140 mM NaNO3, 10 mM HEPES, pH 7.0 buffer. For the portion of vesicles to be doped with gA the desired amount of gramicidin from Bacillus aneurinolyticus, Sigma Chemical Co. (St. Louis, Mo.), diluted in dimethylsulfoxide (DMSO) was added and incubated for 24 hours at 12-13° C. in the dark.
The final DMSO concentrations were kept consistent for all samples and under 0.5% with the exception of when DMSO was tested, then listed amounts where used and no DMSO was added to controls.
The fluorescence was measured using a SX.20 Stopped-Flow Spectrometer (Applied Photophysics, Leatherhead, UK), with a 150-W Xenon lamp, a two sample rapid mixing unit with machine dead time˜1.2 ms and a thermostatting water bath set to 25° C. The samples were excited at X=352 nm and fluorescence was recorded though λ=455 nm high pass filter with Pro-Data control software from Applied Photophysics, sampling 5000 points a second. For each sample at least 10 repeated mixing trials were measured, from two or more vesicle preparations. Each repeat was separately analyzed using MATLAB v7.4, The MathWorks, Inc (Natick, Mass.). The time course of fluorescence quenching was normalized to the average fluorescence without quencher, for that particular sample, and the first 2-100 ms of the time course was fitted with a stretched exponential. The initial influx rate is quantified as the rate of the stretched exponential at 2 ms.

[2] = test system: gA channel in DC18:1PC/n-decane bilayers; settings: cited from earlier work; for Single channel: concentration at which the molecule double/half gA channel lifetime: standard bilayer-punch electrophysiological methods
[3] = target: Shaker potassium channel (Drosophila melanogaster, UniProt P08510); settings: cited from earlier work
Sequence of Shaker potassium channel (P08510 whole entry): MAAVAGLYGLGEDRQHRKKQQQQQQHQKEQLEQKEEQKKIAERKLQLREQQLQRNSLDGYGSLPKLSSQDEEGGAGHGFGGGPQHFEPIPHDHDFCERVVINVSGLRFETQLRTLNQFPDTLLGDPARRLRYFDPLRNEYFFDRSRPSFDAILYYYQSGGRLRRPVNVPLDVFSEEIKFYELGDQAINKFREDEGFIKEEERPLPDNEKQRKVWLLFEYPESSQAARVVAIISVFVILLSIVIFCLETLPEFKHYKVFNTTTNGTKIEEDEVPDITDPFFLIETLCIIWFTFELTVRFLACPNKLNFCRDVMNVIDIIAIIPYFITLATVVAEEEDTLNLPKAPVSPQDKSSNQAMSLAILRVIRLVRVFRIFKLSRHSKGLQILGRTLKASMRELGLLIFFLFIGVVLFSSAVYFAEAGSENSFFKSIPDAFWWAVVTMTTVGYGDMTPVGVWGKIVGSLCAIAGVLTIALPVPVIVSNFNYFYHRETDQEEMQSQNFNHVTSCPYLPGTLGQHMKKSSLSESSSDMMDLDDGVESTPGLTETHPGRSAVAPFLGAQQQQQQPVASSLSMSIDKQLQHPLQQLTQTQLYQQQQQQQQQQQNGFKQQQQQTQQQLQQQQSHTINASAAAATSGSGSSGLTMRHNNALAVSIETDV

## O=c1c(-c2ccc(O)cc2)coc2cc(O)cc(O)c12 [Genistein]
[1]
  Flourescence: concentration at which the molecules double/half the rate of the fluorescence quenching: 22
[2]
  Single channel: concentration at which the molecule double/half gA channel lifetime: 25 µM

## NCCc1c(SSc2[nH]c3cc(Br)ccc3c2CCN)[nH]c2cc(Br)ccc12 [BrMT]
[1]; stopped-flow experiments
  effect on lipid bilayer properties (gA channel activity, stopped-flow): altered lipid bilayer properties
[3]
  Shaker potassium channel activation: slows

## Triton X-100
[1]
  Flourescence: concentration at which the molecules double/half the rate of the fluorescence quenching: 13
[2]
  Single channel: concentration at which the molecule double/half gA channel lifetime: 9 µM

## C[S+](C)[O-] [Dimethyl sulfoxide]
[1]; % of volume
  amount that affects bilayer properties: > 0.5%
[1]
  Flourescence: concentration at which the molecules double/half the rate of the fluorescence quenching: 340,000
[2]; in µM
  Single channel: concentration at which the molecule double/half gA channel lifetime: >410,000

## (−)-epigallocatechin gallate
[1]
  Flourescence: concentration at which the molecules double/half the rate of the fluorescence quenching: 12
[2]; single-channel
  effect on gA channel conductance: causes conductance flickers or sub-conductance states
[2]
  Single channel: concentration at which the molecule double/half gA channel lifetime: 0.25 µM

## [Gd+3] [Gd^3+]
[1]
  Flourescence: concentration at which the molecules double/half the rate of the fluorescence quenching: <1000
[2]
  Single channel: concentration at which the molecule double/half gA channel lifetime: > 30 µM

## CCCCCCCCO[C@@H]1O[C@H](CO)[C@@H](O)[C@H](O)[C@H]1O [β-octylglucoside]
[1]
  Flourescence: concentration at which the molecules double/half the rate of the fluorescence quenching: 325
[2]
  Single channel: concentration at which the molecule double/half gA channel lifetime: 270 µM

## COc1cc(CNC(=O)CCCC/C=C/C(C)C)ccc1O [Capsaicin]
[1]; 10 μM capsaicin
  rate of quencher influx (rate of stretched exponential): 69±6
[1]; 30 μM capsaicin
  rate of quencher influx (rate of stretched exponential): 85±8
[1]; 90 μM capsaicin
  rate of quencher influx (rate of stretched exponential): 247±27
[1]; 10, 30, 90 μM, concentration dependent
  rate of fluorescence quenching (Tl+ influx) in the presence of gramicidin: increased
[1]
  Flourescence: concentration at which the molecules double/half the rate of the fluorescence quenching: 21
[2]
  Single channel: concentration at which the molecule double/half gA channel lifetime: 25 µM

## OC(c1cc(C(F)(F)F)nc2c(C(F)(F)F)cccc12)C1CCCCN1 (centres unmarked) [Mefloquine]
[1]
  Flourescence: concentration at which the molecules double/half the rate of the fluorescence quenching: 37
[2]; single-channel electrophysiology
  gA channel frequency: decreases
[2]
  Single channel: concentration at which the molecule double/half gA channel lifetime: 6 µM

## Oc1cc2c(cc1O)CN(C(=S)NCCc1ccc(Cl)cc1)CCC2 [Capsazepine]
[1]
  Flourescence: concentration at which the molecules double/half the rate of the fluorescence quenching: 16
[2]
  Single channel: concentration at which the molecule double/half gA channel lifetime: 4 µM

## O=c1c(-c2ccc(O)cc2)coc2cc(O[C@@H]3O[C@H](CO)[C@@H](O)[C@H](O)[C@H]3O)cc(O)c12 [Genistin]
[1]
  Flourescence: concentration at which the molecules double/half the rate of the fluorescence quenching: 910
[2]
  Single channel: concentration at which the molecule double/half gA channel lifetime: >>30

Reference: patent US8901042B2, “High throughput screen for measuring membrane effects” (Cornell University, priority 2009, dated 2014)
